Measured values published in PMC8645223, “Development of a simple and miniaturized sandwich-like fluorescence polarization assay for rapid screening of SARS-CoV-2 main protease inhibitors” (Cell & Bioscience, 2021).

Experiments:
[1] = test system: COc1ccc2c(CC(=O)N[C@@H](C)C(=O)N[C@H](C(=O)N[C@@H](CC(C)C)C(=O)N[C@@H](CCC(N)=O)C(=O)N[C@@H](CO)C(=O)NCC(=O)N[C@@H](Cc3ccccc3)C(=O)N[C@@H](CCCNC(=N)N)C(=O)N[C@@H](CCCCNc3ccc([N+](=O)[O-])cc3[N+](=O)[O-])C(=O)N[C@@H](CCCCN)C(N)=O)C(C)C)cc(=O)oc2c1; experiment: purified protein, by the assay type; conditions: pH 8.0
SARS-CoV-2 Mpro [2] = target: T1, SARS-CoV-2 Mpro (Severe acute respiratory syndrome coronavirus 2, UniProt P0DTD1); experiment: sandwich-like FP screening assay; type: biochemical
SARS-CoV-2 Mpro [3] = target: T1, SARS-CoV-2 Mpro; experiment: FRET assay, inhibition of Mpro proteolytic activity; type: biochemical; conditions: for IC50: IC50, FRET assay
Experimental: As described previously, the inhibitory activity of dieckol against Mpro was preformed using a FRET assay. In brief, 50 µL sample of Mpro (0.4 µM) was preincubated with the indicated concentrations of dieckol (initial concentration: 100 µM, 8 two-fold dilutions) at RT for 35 min in FP assay buffer, and the reaction was initiated by adding 5 µM FRET substrate. DMSO and GC-376 (1 µM) was used as a negative and positive control, respectively. The RFU change was separately measured as described previously every second for 3 min by a microplate reader. The VI was calculated by a slope of the linear regression in the first 30 s, and the IC50 value was calculated using the following equation:3 Dieckolinhibition(%)=1-VIDieckol/VIDMSO×100%
To clarify the inhibitory mechanism of dieckol, the fixed concentrations of dieckol (0, 2, 4, 6 µM) were separately added to 50 µL sample of Mpro (0.4 µM), and the mixture was preincubated for 10 min at RT. After adding 5 µM FRET substrate, the VI was measured using a FRET assay. The inhibition mechanism of dieckol was inferred using the LB plot and a Ki value was generated by its secondary plot.

SARS-CoV-2 Mpro [4] = target: T1, SARS-CoV-2 Mpro; experiment: SPR binding assay
Experimental: The binding affinity between dieckol and Mpro was measured using a real-time SPR spectroscopy instrument (Reichert 2SPR, Buffalo, USA). In all, 20 µL Mpro (1.6 mg/mL) in 10 mM NaAc buffer (pH5.5) was immobilized to a surface activated CM5 gold biosensor (Reichert Inc., New York, USA), and the active sites were quenched with 1 M ethanolamine buffer (pH8.0). After washing the sample loop, an indicated concentration of dieckol (0, 6.25, 12.5, 25 µM) was separately injected on the surface of the Mpro-captured biosensor at RT. The binding time of the analyte to the ligand was 90 s, and the dissociation kinetic was recorded during 330 s. Finally, the real RIU was continuously monitored, and the RIU can be related to arbitrary resonance unit (RU) as 1 µRIU = 0.733 RU. The KD value was calculated using the analyte binding kinetic curve plotted by Trace Drawer software (Ridgeview Instruments, Sweden).

Molecule “SARS-CoV-2 Mpro (Severe acute respiratory syndrome coronavirus 2)” has a Km [1] of 19.78 µM.

With `Oc1cc(O)cc(Oc2c(O)cc(O)c3c2Oc2c(O)cc(Oc4c(O)cc(Oc5c(O)cc(O)c6c5Oc5c(O)cc(O)cc5O6)cc4O)cc2O3)c1` [dieckol] the IC50 (SARS-CoV-2 Mpro [2]; absence of DTT) was 2.9 ± 0.2 µM, the IC50 (SARS-CoV-2 Mpro [2]; presence of 1 mM DTT) was 4.5 ± 0.4 µM and the Ki (SARS-CoV-2 Mpro [3]) was 3.3 µM. The IC50 (SARS-CoV-2 Mpro [3]; absence of DTT) was 1.8 ± 0.2 µM, the IC50 (SARS-CoV-2 Mpro [3]; presence of 1 mM DTT) was 3.8 ± 0.3 µM and the inhibition mechanism (SARS-CoV-2 Mpro [3]; Lineweaver-Burk plot, same Vmax, varying Km) was “competitive inhibitor”. It also gave a Kd (SARS-CoV-2 Mpro [4]) of 0.22 µM and a kd (SARS-CoV-2 Mpro [4]; SPR dissociation rate) of 0.000226 s⁻¹.
